Measured values from patent US20110189174A1, “COMPOSITIONS AND METHODS FOR TREATING, REDUCING, AMELIORATING, ALLEVIATING, OR INHIBITING PROGRESSION OF, PATHOGENIC OCULAR NEOVASCULARIZATION” (priority 2010, published 2011).

Tests used:
[1] = system: laser-induced CNV in rats; assay: Laser-induced choroidal neovascularization in rats (CNV area, fluorescein angiography grades); format: in vivo, Brown Norway rats; details: day 14, 200 μg/eye (echistatin 5 μg, Avastin 125 μg); for Number of lesions in FA grade 1 / Number of lesions in FA grade 2 / Number of lesions in FA grade 3 / Number of lesions in FA grade 4: unobstructed lesions
Protocol: Fifty six male Brown Norway rats, approximately 200-300 grams of body weight and two months of age, were used in this study. This study was performed in two cohorts and only one eye of each rat was used.
The pupils were dilated and then the rats were anesthetized as described in baseline examination. The rats were positioned in front of a slit lamp system (Haag-Streit USA, Mason, Ohio). […] A diode laser (OcuLight TX, IRIDEX, Mountain View, Calif.) was used for photocoagulation (532 nm wavelength, 120 mW power, 50 μm spot size and 0.05 seconds duration). For each right eye, a series of six photocoagulation sites were concentrically placed between the major retinal vessels at equal distance (about two optic discs) around the optic nerve head. […] If a significant retinal or subretinal hemorrhage occurred during the laser photocoagulation, then the left eye was be photocoagulated and used as the experimental eye.
Grade 1 lesions had no hyperfluorescence.
The eyes were collected on day 14 and immediately fixed in 4% paraformaldehyde in PBS (pH 7.4) for one and half hours, and then transferred into cold PBS and kept at 4° C. for further processing.
The incubation was performed in a humidified dark chamber with gentle rotation at 4° C. overnight. On the second day, the retinal pigment epithelium (RPE)-choroidsclera complexes were washed with cold IHC buffer, mounted with ProLong® Gold antifade reagent, covered with circular cover glass, and sealed with clear nail polish. Fluorescent images were collected with a confocal microscope (FluoView FV 1000 confocal microscope, Olympus, Center Valley, Pa.) and a 4×, 0.16 numerical aperture objective lens. […] The laser sites were identified by merging images of the green (phalloidin labeling RPE) and the red (isolectin IB4 labeling CNV) channels. CNV complexes were identified using the red channel (isolectin), and their areas were quantified using the FluoView software (Version 1.7a).
Average FA scores and areas of CNV complexes in each group were presented as mean±SEM, unless otherwise indicated. They were analyzed using a one-way ANOVA followed by a Tukey-Kramer test after Box-Cox transformations. All statistics were performed utilizing the statistical analysis software JMP (SAS Institute, Cary, N.C.). p values ≦0.05 were considered statistically significant.

[2] = Ocular clinical findings in rats 14 days after intravitreal injection; details: for Intraocular inflammation and retinal vascular congestion: Day 14 after intravitreal injection
Protocol: The anterior segment of the eye was examined using a slit-lamp biomicroscopy for excluding any animals with abnormalities that might interfere with the study. Fundus photography and fluorescein angiography (FA) were performed to document the health of the retina and the ocular circulation using a TRC 50EX fundus camera (Topcon). For FA, 10% sodium fluorescein was injected intravenously (50 mg/kg of body weight) through the tail vein or the vein under the incisor before the procedure.
Immediately after placement of laser photocoagulation, the experimental eyes received an intravitreal injection of either a compound or a vehicle as described in Table 5. Following the disinfection of ocular surface with 5% betadine and 0.9% saline solutions, the injections were performed with aid of a surgical microscope using 0.3 mL syringes with a 31-gauge ½-inch long needle (Ultra-Fine II™ Insulin syringe, BD, Franklin Lakes, N.J.).
Two weeks after photocoagulation, all rats were examined under anesthesia and pupil dilation with slit-lamp biomicroscopy, fundus photography and FA as described in the baseline examination.

[3] = system: human retinal endothelial cells (HREC); assay: Testing 7: VEGF-induced HREC proliferation (MTS assay), integrin antagonists and Lucentis alone and in combination; format: cell-based; details: study II; compound 1 nM; Lucentis 1 ng/mL
Protocol: HREC were first cultured overnight in a 96-well plate coated with fibronectin. The next day medium containing different agents as shown in Tables 14 and 15 was pre-incubated for 1 hour before being added into appropriate wells. The cells were cultured at 37° C., 5% CO2, and 95% humidity for another 3 days. After that, cell proliferation was estimated by the MTS assay. In the first study we used VEGF 10 ng/mL (about EC80 in study PH08169), Lucentis® 1 ng/mL (about EC25 in study PH09038) and 5 doses of BOL-303055-X. Normal IgG (1 ng/ml) was also added to groups containing no Lucentis®. All groups contained the same amount of 0.1% DMSO. In the second study, all five compounds (BOL-303049-X, BOL-303050-X, BOL-303051-X, BOL-303054-X and BOL-303055-X) were tested at 1 nM with other conditions remaining the same.
A 96-well plate was coated with human fibronectin (10 μg/mL) for 5 hours at 37° C. HREC were washed with HBSS buffer once, tripsinized and re-suspended in 10% FBS CS-C medium at 18,000 cells/mL. Cells (200 μL) were added to the plate and cultured overnight at 37° C., 5% CO2, and 95% humidity. Next day, the cells were serum-starved for 2 hours.
For study I, VEGF at 10 ng/mL, Lucentis® at 1 ng/mL and BOL-303055-X at 0.1, 0.3, 1, 3 and 10 nM were prepared in 1% FBS CS medium as shown in Table 14. Normal IgG (1 ng/mL) were added to groups containing no Lucentis®. All medium solutions were incubated for 1 hour at 37° C. After carefully medium was aspirated, 200 μL of the medium containing different agents were then added into appropriate wells. The cells were cultured for another 3 days. For the study II as shown in the Table 15, five compounds were tested at 1 nM with other conditions remaining the same as study I.
(§1) At the end of incubation, the medium was carefully aspirated from cells and 120 μl of MTS working solution was added into all wells including blank wells (without cells). The plates were incubated at 37° C., 5% CO2, and 95% humidity for 1 hour and then read by a plate reader at 490 nm wavelength.
Median optical density (OD) was generated from different groups. Data were expressed as mean±SEM of the OD values. Statistical analysis was performed using three-way ANOVA after Box-Cox transformations, and p<0.05 was considered statistically significant. To evaluate whether the effects of the combinations were either synergistic or additive, net inhibitions were calculated by subtracting the basal levels in the presence of VEGF from the individual treatments (Lucentis® and Integrin blockers) and the combinations. […] Data analysis was performed utilizing the statistical analysis software JMP (SAS Institute, Cary, N.C.).

[4] = system: human retinal endothelial cells (HREC); assay: PMA-induced HREC network formation in fibrin gel; format: cell-based; details: PMA 25 ng/mL, vs PMA control
Protocol: Prior to the start of the experiment, HREC from Cell Systems were cultured in flask in CS-C complete medium. The tube formation assay was performed in a 96-well plate pre-coated with fibrin gel. HREC were collected from flasks and re-suspended 1% FBS EBM-2 medium. Cells were pre-incubated with the integrin antagonists, echistatin or vehicle control for 30 min before loading onto the fibrin gel. Images were taken at 9 h.
Thrombin solution and fibrinogen solutions were allowed to thaw at room temperature and 37° C. water bath, respectively. Fibrinogen solution at 30 μL was added into the desired number of wells in a 96-well plate. Plate was gently shaken to ensure uniform coverage of fibrinogen solution in the well. Thrombin at 20 μL was added into each well. The plate was gently shaken immediately to ensure the thrombin was mixed well with fibrinogen. The plate was placed at 37° C. overnight to allow the fibrin gel to polymerize.
HREC were trypsinized at about 80% confluence and counted by standard hemocytometer methods. After deactivating trypsin with 5 mL of 10% FBS EBM-2 medium, the cells were centrifuged (800 rpm, 8 min) and re-suspended at 2×10^5 cells/mL in 1% FBS EBM-2 medium
Cells were pre-incubated with integrin compounds or echistatin at 37° C., 5% CO2, and 95% humidity for 30 minutes before mixing with PMA medium. The final concentrations of all agents are shown in the design table. The 100 μL of the cell mixture was added onto the gel and cells were cultured at 37° C., 5% CO2, and 95% humidity. Images were taken at different time points.
The network formation scoring system (a five point-scale)
Each well in one group was given a score and then averaged. Data were expressed as mean±SEM of network formation scores. Statistical analysis was performed using a one-way ANOVA-Dunnett's test in raw data, and p<0.05 was considered statistically significant. Data analysis was performed using statistical analysis software JMP (SAS Institute, Cary, N.C.).

[5] = system: human retinal endothelial cells (HREC); assay: Testing 5: VEGF-induced HREC proliferation (MTS assay), echistatin and Avastin alone and in combination; format: cell-based; details: echistatin 2 nM
Protocol: HREC were first cultured overnight in a 96-well plate coated with fibronectin. The next day, cells were serum-starved for 2 h before treatment. Medium containing different agents as shown in table below was pre-incubated for 1 h before being added to cells. The cells were cultured at 37° C., 5% CO2, and 95% humidity for another 3 days. After that, cell proliferation was estimated by the MTS assay. […] Normal human IgG was also added to different groups in such a way that all groups contained the same amounts of IgG protein.
A 96-well plate was coated with human fibronectin (10 μg/mL) for 5 hours. HREC were collected from flasks by EDTA-trypsin treatment and re-suspended in 10% FBS CS-C medium at 15,000 cells/mL. Cells (200 μL) were added to the plate and cultured overnight at 37° C., 5% CO2, and 95% humidity. Next day, the medium was removed and 200 μl/well serum free medium was added.
All medium solutions were incubated for 1 h at 37° C. After carefully aspirating the medium from cells, […], of the medium containing the different agents was added into appropriate wells. The cells were cultured for another 3 days.
as §1, with “plate was” for “plates were”, “then absorbance was” for “then”
Median optical density (OD) was generated from different groups. Data were expressed as mean±SEM of the OD values. Statistical analysis was performed using a one or two-way ANOVA using Box-Cox transformed data if needed, and P<0.05 was considered statistically significant. […] All the data from the individual wells were fitted to a re-parameterized four-parameter logistic equation to obtain IC50 using similar methodology as that previously described and utilizing the statistical analysis software JMP (SAS Institute, Cary, N.C.).

[6] = Day 14, 200 μg/eye intravitreal
[7] = one intravitreal injection after laser

Row | Compound | Number of lesions in FA grade 1 [1] | Number of lesions in FA grade 2 [1] | Number of lesions in FA grade 3 [1] | Number of lesions in FA grade 4 [1] | Eyes with anterior chamber inflammation/Total eyes [2, 6] | Eyes with retinal vascular congestion/vessel-observable eyes [2, 6] | Posterior synechiae of iris [2, 6] | Intraocular inflammation and retinal vascular congestion [2] | Combination effect with Lucentis on VEGF-induced HREC proliferation (synergistic/additive) [3] | Inhibition of PMA-induced HREC network formation in fibrin gel ([4]; 1 nM) | Inhibition of PMA-induced HREC network formation in fibrin gel ([4]; 10 nM) | Mean score of fluorescein leakage (FA score) compared to vehicle-treated controls [1, 7] | CNV area / development of CNV on isolectin IB4-labeled flat mounts compared to vehicle-treated controls [1, 7] | Cataract formation ([2]; Day 14, echistatin 5 μg/eye intravitreal) | Enhancement of Avastin potency [5] | Inhibition of VEGF-induced HREC proliferation, agent alone ([5]; Avastin 0.625-10 ng/ml (significant at 10 ng/ml), VEGF 10 ng/mL) | HREC proliferation under basal conditions ([5]; Avastin 0.625-10 ng/ml, no VEGF) | Combination effect with Avastin on VEGF-induced HREC proliferation (synergistic/additive) ([5]; Avastin 0.625 to 10 ng/ml)
1 | COc1ccc(CCOC(=O)N[C@@H](CNc2nc(C)nc(N3CCC(c4ccc5c(n4)NCCC5)CC3)c2C)C(=O)O)cc1 [BOL-303049-X] | 0 | 0 | 0 | 0 | 6/6 | 1/1 | Posterior synechiae of iris occurred in several eyes | most severe inflammation | synergistic effect | significantly inhibited | significantly inhibited |  |  |  |  |  |  | 
2 | Cc1nc(NC[C@H](NC(=O)OCC2CCCCC2)C(=O)O)c(C)c(N2CCC(c3ccc4c(n3)NCCC4)CC2)n1 [BOL-303051-X] | 2 | 3 | 9 | 10 | 3/6 | 0/4 |  |  | additive effects | significantly inhibited | significantly inhibited | smaller means |  |  |  |  |  | 
3 | CC1(C)O[C@@H]2C[C@H]3[C@@H]4CCC5=CC(=O)C=C[C@]5(C)[C@@]4(F)[C@@H](O)C[C@]3(C)[C@]2(C(=O)CO)O1 [TA, triamcinolone acetonide, reference compound] | 3 | 11 | 4 | 0 |  |  |  | no intraocular inflammation and retinal vascular congestion was recorded |  |  |  |  |  |  |  |  |  | 
4 | Echistatin [reference compound] | 0 | 12 | 3 | 2 |  |  |  | no intraocular inflammation and retinal vascular congestion was recorded |  |  | significantly inhibited | smaller means | smaller area of CNV | Two eyes treated with echistatin developed cataract | approximately 1.6 fold | not statistically significant | significantly inhibited | additive effects
